Test results published in publication PMC11127902, “Rescuing tri-heteromeric NMDA receptor function: the potential of pregnenolone-sulfate in loss-of-function GRIN2B variants” (Cellular and Molecular Life Sciences: CMLS, 2024).
Like-named read-outs stand apart in the source and are kept apart here.

Tests used:
[1] = test system: non-tagged purely di-heteromeric GluN2B-wt; parameters: method as in PMID 32168371; conditions: read-out: Glutamate EC50 (adapted from[16]); non-tagged human receptors; cited from earlier work
[2] = test system: Mixed di-heteromeric GluN2B-wt/GluN2B-C461F; parameters: method as in PMID 27839871; conditions: glutamate; ref 21; cited from earlier work
[3] = test system: Mixed tri-heteromeric GluN2A-wt/ GluN2B-M818T; parameters: method as in PMID 35110392; conditions: glutamate; ref 10; cited from earlier work
[4] = test system: non-tagged purely di-heteromeric GluN2B-G689C; conditions: read-out: Glutamate EC50 (adapted from[16]); non-tagged human receptors; cited from earlier work
[5] = test system: Mixed di-heteromeric GluN2A-wt/GluN2A-L812M; parameters: method as in PMID 24504326; conditions: glutamate; ref 39; cited from earlier work
[6] = test system: Mixed tri-heteromeric GluN2A-H485A/ GluN2B-wt; parameters: method as in PMID 24607230; conditions: glutamate; ref 8; cited from earlier work
[7] = test system: wt di-heteromeric GluN2B NMDAR; conditions: glutamate, cited from earlier work
[8] = test system: Mixed di-heteromeric GluN2A-wt/GluN2A-M817V; parameters: method as in PMID 28126851; conditions: glutamate; ref 91; cited from earlier work
[9] = test system: Pure variant di-heteromeric GluN2A-M817V; parameters: method as in PMID 28126851; conditions: glutamate; ref 91; cited from earlier work
[10] = test system: Pure variant di-heteromeric GluN2A-S644G; parameters: method as in PMID 32577763; conditions: glutamate; di-heteromer section; cited from earlier work
[11] = test system: Pure variant di-heteromeric GluN2A-T690A; parameters: method as in PMID 24607230; conditions: glutamate; ref 8; cited from earlier work
[12] = test system: Mixed di-heteromeric GluN2A-wt/GluN2A-H485A; parameters: method as in PMID 24607230; conditions: glutamate; ref 8; cited from earlier work
[13] = test system: Mixed di-heteromeric GluN2B-wt/GluN2B-G689C; assay: TEVC in Xenopus oocytes; conditions: compared to purely di-heteromeric variant channels
Method: (§1) Two electrode voltage clamp (TEVC) recordings were carried out 24–72 h after mRNA injections, as previously described [17, 37]. We use a commercial amplifier (Warner Instruments, USA) and Digitizer (Digidata-1550B; Molecular Devices, USA), controlled by the pClamp10 software (Molecular Devices, USA). Electrode were made by pulling glass capillaries (Narishige, Japan) filled with 3 M KCl, into which we inserted chlorinated silver wires. […] For hERG channel recordings, oocytes were clamped at (− 60) mV for 1 s, followed by a voltage jump to 20 mV for 4 s, and an additional voltage jump to (− 50) mV for 6 s and return to baseline voltage (see Supplementary. 6f), as previously described [53].
(§2) When assessing potentiation by PS, all other solutions also included equal amounts of the DMSO carrier (0.2%).
(§3) Electrophysiology data were analyzed by Clampfit 11.2 (Molecular Devices, USA), plotted using GraphPad 8 or SigmaPlot 11(Systat software, Inc.). […] In all TEVC recordings in oocytes, the responses were normalized to current amplitude obtained from that individual cell. […] All data are shown as mean ± SEM. In all experiments N indicates the number of independent experiments, whereas n indicates the number of cells recorded. In each experiment, data underwent normality test prior to statistical assessment. Normally distributed data were assessed for significance by using paired t-test or one-way ANOVA for multiple group comparison and post hoc Tukey test or Dunnett's test. Similarly, in the case of non-normally distributed data significance was assessed by Mann Whitney test or Kruskal–Wallis ANOVA on ranks test followed by Dunn’s multiple comparison post hoc; n.s., non-significant; *p < 0.05; **p < 0.01; ***p < 0.001. […] Leak expression was evaluated by normalizing the maximal current (Imax) of each ER-retained NMDAR composition to Imax of control group (which was recorded in all experiments). Estimation of activation time constant (τ) for potentiated currents by PS, was performed by fitting PS- potentiated currents with a standard single-exponential function, from which we extracted the time constant (τ).

[14] = molecular target: Mixed di-heteromeric GluN2B-wt/GluN2B-G689C (Rattus norvegicus, UniProt P35439+Q00960, G689C); assay: TEVC in Xenopus oocytes; conditions: glutamate dose-response
Method: as §1, §2, §3

[15] = test system: Pure variant di-heteromeric GluN2B-E413G; parameters: method as in PMID 27839871; conditions: glutamate; ref 21; cited from earlier work
[16] = test system: Mixed tri-heteromeric GluN2A-wt/ GluN2B-A819T; parameters: method as in PMID 35110392; conditions: glutamate; ref 10; cited from earlier work
[17] = test system: Mixed di-heteromeric GluN2A-wt/GluN2A-S644G; parameters: method as in PMID 32577763; conditions: glutamate; ref 19; cited from earlier work
[18] = test system: Mixed tri-heteromeric GluN2A-S644G/ GluN2B-wt; parameters: method as in PMID 35110392; conditions: glutamate; ref 10; cited from earlier work
[19] = molecular target: Tri-heteromeric GluN2A-wt/GluN2B-wt (Rattus norvegicus, UniProt P35439+Q00959+Q00960, A876H/F846L/G856D/H848F/K857R/M851T/M860L/Q845K/V861L); assay: TEVC in Xenopus oocytes; conditions: glutamate dose-response
Chain of Tri-heteromeric GluN2A-wt/GluN2B-wt (Q00959 23-1464, other chains not shown): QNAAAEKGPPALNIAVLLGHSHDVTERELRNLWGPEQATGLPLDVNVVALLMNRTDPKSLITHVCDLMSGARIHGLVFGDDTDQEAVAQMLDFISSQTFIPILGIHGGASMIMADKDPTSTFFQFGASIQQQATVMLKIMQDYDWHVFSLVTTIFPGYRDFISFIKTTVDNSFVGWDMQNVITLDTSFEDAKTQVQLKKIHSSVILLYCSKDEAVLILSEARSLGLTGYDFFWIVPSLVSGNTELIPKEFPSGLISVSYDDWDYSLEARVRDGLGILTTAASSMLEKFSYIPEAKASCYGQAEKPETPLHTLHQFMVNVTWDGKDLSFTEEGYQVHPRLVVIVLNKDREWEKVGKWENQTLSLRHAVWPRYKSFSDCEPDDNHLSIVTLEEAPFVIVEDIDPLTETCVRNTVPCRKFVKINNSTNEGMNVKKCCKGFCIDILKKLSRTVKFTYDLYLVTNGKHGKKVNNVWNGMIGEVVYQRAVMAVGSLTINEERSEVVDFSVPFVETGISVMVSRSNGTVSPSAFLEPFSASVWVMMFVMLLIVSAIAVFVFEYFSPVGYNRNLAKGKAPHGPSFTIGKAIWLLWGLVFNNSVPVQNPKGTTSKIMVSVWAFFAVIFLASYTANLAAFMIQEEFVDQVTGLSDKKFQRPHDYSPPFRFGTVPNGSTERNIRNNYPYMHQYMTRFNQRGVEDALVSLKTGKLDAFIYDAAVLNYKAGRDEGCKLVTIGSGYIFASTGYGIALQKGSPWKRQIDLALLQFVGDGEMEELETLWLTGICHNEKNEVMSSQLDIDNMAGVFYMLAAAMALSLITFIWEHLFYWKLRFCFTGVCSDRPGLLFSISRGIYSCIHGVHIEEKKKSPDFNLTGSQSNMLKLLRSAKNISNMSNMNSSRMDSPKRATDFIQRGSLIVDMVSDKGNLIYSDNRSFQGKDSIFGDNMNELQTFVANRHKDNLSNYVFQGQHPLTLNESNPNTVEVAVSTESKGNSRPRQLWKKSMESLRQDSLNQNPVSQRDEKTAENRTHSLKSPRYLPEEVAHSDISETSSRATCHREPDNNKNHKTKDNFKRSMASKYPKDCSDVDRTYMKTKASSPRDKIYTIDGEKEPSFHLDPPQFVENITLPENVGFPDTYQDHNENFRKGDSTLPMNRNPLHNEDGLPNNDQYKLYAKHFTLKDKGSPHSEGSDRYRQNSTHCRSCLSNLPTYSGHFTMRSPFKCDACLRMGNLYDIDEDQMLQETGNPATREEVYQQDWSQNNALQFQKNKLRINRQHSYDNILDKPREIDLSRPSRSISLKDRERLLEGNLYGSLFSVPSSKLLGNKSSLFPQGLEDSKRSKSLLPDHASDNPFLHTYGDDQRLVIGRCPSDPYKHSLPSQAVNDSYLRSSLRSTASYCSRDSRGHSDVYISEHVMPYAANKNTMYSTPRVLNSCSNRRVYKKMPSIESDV
Chain of Tri-heteromeric GluN2A-wt/GluN2B-wt (Q00960+Q00959 fused with the stated changes, other chains not shown): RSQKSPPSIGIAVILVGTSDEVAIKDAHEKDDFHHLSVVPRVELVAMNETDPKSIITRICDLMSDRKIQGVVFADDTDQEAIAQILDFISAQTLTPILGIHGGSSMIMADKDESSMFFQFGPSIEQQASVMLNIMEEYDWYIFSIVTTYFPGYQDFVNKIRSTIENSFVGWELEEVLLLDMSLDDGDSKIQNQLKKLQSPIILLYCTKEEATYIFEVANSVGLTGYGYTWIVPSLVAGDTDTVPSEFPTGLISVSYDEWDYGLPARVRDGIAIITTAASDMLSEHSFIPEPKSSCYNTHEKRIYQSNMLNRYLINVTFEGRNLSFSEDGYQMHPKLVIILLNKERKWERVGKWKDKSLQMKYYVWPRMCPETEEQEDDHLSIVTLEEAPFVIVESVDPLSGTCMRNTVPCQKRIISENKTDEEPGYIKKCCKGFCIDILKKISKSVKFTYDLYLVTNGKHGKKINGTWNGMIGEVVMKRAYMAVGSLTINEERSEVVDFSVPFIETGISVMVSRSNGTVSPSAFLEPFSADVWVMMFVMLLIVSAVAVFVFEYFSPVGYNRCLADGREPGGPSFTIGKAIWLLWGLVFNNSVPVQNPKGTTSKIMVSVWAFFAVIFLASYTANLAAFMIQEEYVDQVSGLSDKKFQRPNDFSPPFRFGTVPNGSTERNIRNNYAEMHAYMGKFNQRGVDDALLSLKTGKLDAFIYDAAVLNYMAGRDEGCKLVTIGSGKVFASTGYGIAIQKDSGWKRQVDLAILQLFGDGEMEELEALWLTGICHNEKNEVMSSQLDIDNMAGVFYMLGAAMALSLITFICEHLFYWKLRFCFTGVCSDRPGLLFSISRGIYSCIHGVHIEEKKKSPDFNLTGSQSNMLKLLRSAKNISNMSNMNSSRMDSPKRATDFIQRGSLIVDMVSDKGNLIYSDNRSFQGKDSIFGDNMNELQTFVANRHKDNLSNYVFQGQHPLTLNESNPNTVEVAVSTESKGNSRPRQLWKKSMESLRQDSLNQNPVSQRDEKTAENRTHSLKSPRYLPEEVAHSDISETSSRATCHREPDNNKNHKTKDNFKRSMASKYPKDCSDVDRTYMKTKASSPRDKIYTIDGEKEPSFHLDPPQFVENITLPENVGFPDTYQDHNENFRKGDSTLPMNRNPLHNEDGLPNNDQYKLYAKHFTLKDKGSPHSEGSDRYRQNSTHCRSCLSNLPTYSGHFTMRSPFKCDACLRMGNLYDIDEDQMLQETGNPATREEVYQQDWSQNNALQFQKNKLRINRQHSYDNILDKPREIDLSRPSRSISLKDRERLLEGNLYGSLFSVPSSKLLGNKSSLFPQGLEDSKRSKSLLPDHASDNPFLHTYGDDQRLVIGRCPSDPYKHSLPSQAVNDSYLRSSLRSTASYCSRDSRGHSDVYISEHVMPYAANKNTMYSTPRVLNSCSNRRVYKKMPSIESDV
Method: as §1, §2
Electrophysiology data were analyzed by Clampfit 11.2 (Molecular Devices, USA), plotted using GraphPad 8 or SigmaPlot 11(Systat software, Inc.). […] In all TEVC recordings in oocytes, the responses were normalized to current amplitude obtained from that individual cell. […] All data are shown as mean ± SEM. In all experiments N indicates the number of independent experiments, whereas n indicates the number of cells recorded. In each experiment, data underwent normality test prior to statistical assessment. Normally distributed data were assessed for significance by using paired t-test or one-way ANOVA for multiple group comparison and post hoc Tukey test or Dunnett's test. Similarly, in the case of non-normally distributed data significance was assessed by Mann Whitney test or Kruskal–Wallis ANOVA on ranks test followed by Dunn’s multiple comparison post hoc; n.s., non-significant; *p < 0.05; **p < 0.01; ***p < 0.001. […] Leak expression was evaluated by normalizing the maximal current (Imax) of each ER-retained NMDAR composition to Imax of control group (which was recorded in all experiments). […]

[20] = test system: Pure variant di-heteromeric GluN2B-A639V; parameters: method as in PMID 35110392; conditions: glutamate; ref 10; cited from earlier work
[21] = test system: Pure variant di-heteromeric GluN2A-E551K; parameters: method as in PMID 35110392; conditions: glutamate; ref 10; cited from earlier work
[22] = test system: Mixed tri-heteromeric GluN2A-P552R/ GluN2B-wt; parameters: method as in PMID 35110392; conditions: glutamate; ref 10; cited from earlier work
[23] = test system: Mixed di-heteromeric GluN2A-wt/GluN2A-D731N; parameters: method as in PMID 28182669; conditions: glutamate; ref 33; cited from earlier work
[24] = test system: Mixed di-heteromeric GluN2A-wt/GluN2A-P552R; parameters: method as in PMID 28095420; conditions: glutamate; ref 32; cited from earlier work
[25] = test system: Mixed tri-heteromeric GluN2A-L649V/ GluN2B-wt; parameters: method as in PMID 35110392; conditions: glutamate; ref 10; cited from earlier work
[26] = test system: Pure variant di-heteromeric GluN2B-H486A; parameters: method as in PMID 24607230; conditions: glutamate; ref 8; cited from earlier work
[27] = test system: Mixed tri-heteromeric GluN2A-wt/ GluN2B-H486A; parameters: method as in PMID 24607230; conditions: glutamate; ref 8; cited from earlier work
[28] = test system: Mixed tri-heteromeric GluN2A-M817V/ GluN2B-wt; parameters: method as in PMID 35110392; conditions: glutamate; ref 10; cited from earlier work
[29] = test system: Mixed tri-heteromeric GluN2A-wt/ GluN2B-A639V; parameters: method as in PMID 35110392; conditions: glutamate; ref 10; cited from earlier work

N[C@@H](CCC(=O)O)C(=O)O [Glutamate, glutamate]
EC50 [1]: 1.4 ± 0.1 µM
EC50 [2]: 61 µM
EC50 [3]: 0.96 µM
EC50 [4]: 1500 ± 200 µM
EC50 [5]: 1 µM
EC50 [6]: 210 µM
EC50 ([7]; control of GluN2B-E413G): 0.9 µM
EC50 ([7]; ref 8): 1.6 µM
EC50 [8]: 1.1 µM
EC50 [9]: 0.47 µM
EC50 [10]: 0.05 µM
EC50 [11]: 2700 µM
EC50 [12]: 220 µM
higher (improved) glutamate potency [13]: ~ four-fold
Hill coefficient (nH) [14]: 0.75 ± 0.08 n.s (N = 6, n = 54)
EC50 [15]: 82 µM
EC50 [16]: 0.71 µM
EC50 [17]: 0.7 µM
EC50 [18]: 0.49 µM
Hill coefficient (nH) [19]: 0.77 ± 0.22 (N = 3, n = 33)
EC50 [20]: 0.28 µM
EC50 [21]: 0.47 µM
EC50 [22]: 0.56 µM
EC50 [23]: 6450 µM
EC50 [24]: 1.2 µM
EC50 [25]: 0.36 µM
EC50 [26]: 460 µM
EC50 [27]: 140 µM
EC50 [28]: 0.75 µM
EC50 [29]: 0.58 µM
